# Earlier results as cited in paper PMC6155021, “Ancient and modern anticonvulsants act synergistically in a KCNQ potassium channel binding pocket” (Nature Communications, 2018).
# Set-up: method as in PMID 24781306
# Settings: cited from earlier work
smiles,measurement,value
CC(=O)O [acetate],crossing of the blood brain barrier,readily cross the blood brain barrier
